This is an account of results in patent US20140243227A1, “CULTURE MEDIA FOR STEM CELLS” (Koninklijke Nederlandse Akademie van Wetenschappen, priority 2011, published 2014).

One data set deals with human colon crypts. Put plainly: Screening of reagents for optimization of human intestinal organoids culture (plating efficiency). Type of data set: cell-based.
The test system of a further data set is liver organoids. Put plainly: Liver organoid expansion with PGE2 or arachidonic acid. The class given is cell-based, human. As to conditions: for Number and size of liver organoids versus basal medium alone: PGE2 50 nM or AA 10 ug/ml.
Data set [1] concerns colon and liver organoids. Briefly: GSK3 inhibitor as Wnt replacement in organoid culture media. As to conditions: replacement for Wnt. Type of data set: cell-based.
The subject of a further data set is human colon organoids. Briefly: Long-term culture of human colon organoids (culture period, passages). The class given is cell-based. Particulars: nicotinamide 10 mM, WENR + gastrin.
The test system of data set [2] is human intestinal organoids. Put plainly: Differentiation and proliferation of human intestinal organoids. The class given is cell-based. As to conditions: human organoids after withdrawal of Wnt.
The mark [3] stands for this setting: Second screening (WENR + gastrin + Nicotinamide).

Where two headings read alike, the source gives them in different places.

With `C[C@@H](N)[C@H]1CC[C@H](C(=O)Nc2ccncc2)CC1.Cl.Cl.O` [Y27632, R-(+)-trans-4-(1-aminoethyl)-N-(4-Pyridyl)cyclohexanecarboxamide dihydrochloride monohydrate], in the data set on human colon crypts, the “Activity (plating efficiency compared with control after 4 days culture)” value is listed as 1+ (key: 0 = no change; 1+ = <50% increase; 2+ = 50-100% increase; 3+ = >100% increase; 1− = 0-50%; 2− = 50-100% decrease; 3− = >100% decrease) and the “Organoid morphology note in Activity column” value is on record as “cystic”.
As for `Cc1nc2sccn2c(=O)c1CCN1CCC(=C(c2ccccc2)c2ccc(F)cc2)CC1` [R 59022], the “Result: CYP3AII” value in the data set on liver organoid cultures is recorded as “+”.
Regarding `Oc1c2ccccc2c2c3c(cccc13)N=N2` [SP600125], the “Activity (plating efficiency compared with control after 4 days culture)” value in the data set with human colon crypts (setting [3]) is reported as 0.
In the case of `c1cc(-c2cnn3cc(-c4ccc(OCCN5CCCCC5)cc4)cnc23)ccn1` [Dorsomorphin], the “Activity (plating efficiency compared with control after 4 days culture)” value with human colon crypts (setting [3]) is on record as 0.
As for `CCCCC/C=C\C/C=C\C/C=C\C/C=C\CCCC(=O)O` [AA, Arachidonic acid], the “Number and size of liver organoids versus basal medium alone” value in the data set on liver organoids was “greater number of larger organoids”.
For `O=C1O[C@H]([C@@H](O)CO)C(O)=C1O` [L-Ascorbic acid], the “Activity (plating efficiency compared with control after 4 days culture)” value in the data set with human colon crypts (First screening (WENR)) was determined as 0.
In the data set on liver organoid cultures (titration, hepatocyte marker expression), `C[C@H](NC(=O)Cc1cc(F)cc(F)c1)C(=O)N[C@H](C(=O)OC(C)(C)C)c1ccccc1` [DAPT] registered a Maximal concentration efficiency of 10 µM.
As to `O.O.O.O=C(O)c1ncccc1O.O=C(O)c1ncccc1O.[O]=[V]` [VO-OHpic trihydrate], the “Activity (plating efficiency compared with control after 4 days culture)” value in the data set on human colon crypts (setting [3]) is on record as 3− (3− = >100% decrease).
On to `CC(/C=C/C(=O)NO)=C\[C@@H](C)C(=O)c1ccc(N(C)C)cc1` [TSA], for which the “Result: CYP3AII” value with liver organoid cultures was “−”.
On to `C[C@]12CCC(=O)C=C1CC[C@@H]1[C@@H]2[C@@H](O)C[C@@]2(C)[C@H]1CC[C@]2(O)C(=O)CO` [Hydrocortison], for which the “Activity (plating efficiency compared with control after 4 days culture)” value in the data set with human colon crypts (First screening (WENR)) is on record as 0.
As for Cholera Toxin, the “Activity (plating efficiency compared with control after 4 days culture)” value with human colon crypts is reported as 1+ (key: 0 = no change; 1+ = <50% increase; 2+ = 50-100% increase; 3+ = >100% increase; 1− = 0-50%; 2− = 50-100% decrease; 3− = >100% decrease).
Take `CCCCC[C@H](O)/C=C/[C@H]1[C@H](O)CC(=O)[C@@H]1C/C=C\CCCC(=O)O` [PGE2, prostaglandin E2]: the “Activity (plating efficiency compared with control after 4 days culture)” value with human colon crypts (First screening (WENR)) is on record as 1+ (1+ = <50% increase). The “Culturing time without growth reduction” value in the data set with liver organoids (5 fold expansion per week, 5 weeks without PGE2) is reported as “at least 8 weeks”. In addition, in the data set with liver organoids, the “Number and size of liver organoids versus basal medium alone” value is on record as “greater number of larger organoids”.
On to `Cc1c[nH]c(-c2cnc(NCCNc3ccc(C#N)cn3)nc2-c2ccc(Cl)cc2Cl)n1` [CHIR99021], for which the “Wnt agonist activity in the culture media” value in data set [1] was “effective Wnt agonist”.
For the molecule “Exendin4: GLP1 analog; a 39 amino acid peptide”, in the data set on human colon crypts (First screening (WENR)), the “Activity (plating efficiency compared with control after 4 days culture)” value worked out at 0.
Consider `COc1cc2nc(N3CCCN(C)CC3)nc(NC3CCN(Cc4ccccc4)CC3)c2cc1OC` [BIX01294], for which the “Activity (plating efficiency compared with control after 4 days culture)” value with human colon crypts (setting [3]) is listed as 1− (1− = 0-50%).
`NC(=O)c1cccnc1` [Nicotinamide]: in the data set on human colon crypts (First screening (WENR)), the “Activity (plating efficiency compared with control after 4 days culture)” value is given as 3+ (3+ = >100% increase). Moreover, the “Prolongation of culture period” value in the data set with human colon organoids is “essential for prolongation of culture period beyond the initial 7 days”. In addition, the “Goblet and enteroendocrine cell differentiation” value in data set [2] was “strongly inhibited this differentiation”.
Regarding `Nc1ncn([C@@H]2O[C@H](CO)[C@@H](O)[C@H]2O)c(=O)n1` [5 Azacytidin], the “Activity (plating efficiency compared with control after 4 days culture)” value in the data set with human colon crypts (setting [3]) is 1− (1− = 0-50%).
In the case of `O=C(O)/C=C(/CCc1ccc(Cl)cc1)c1ccccc1` [PS48], the “Activity (plating efficiency compared with control after 4 days culture)” value with human colon crypts (setting [3]) was 0.
Turning to LIF: growth factor (Millipore), the “Activity (plating efficiency compared with control after 4 days culture)” value in the data set on human colon crypts (First screening (WENR)) was 0.
Regarding `Cc1ccc(C(=O)Cn2c3c(sc2=N)CCCC3)cc1` [Pifithrin-α], in the data set on human colon crypts (setting [3]), the “Activity (plating efficiency compared with control after 4 days culture)” value is recorded as 0.
In the case of `Oc1ccc(-c2nc(-c3ccc(F)cc3)c(-c3ccncc3)[nH]2)cc1` [SB-202190, 4-[4-(4-Fluorophenyl)-5-(4-pyridinyl)-1H-imidazol-2-yl]phenol], in data set [2], the “Goblet and enteroendocrine cell differentiation” value is “strongly inhibited this differentiation”.
Take `COc1cccc(-c2cc(=O)c3ccccc3o2)c1N` [PD98059]: in the data set with human colon crypts (setting [3]), the “Activity (plating efficiency compared with control after 4 days culture)” value was 1− (1− = 0-50%).
Take FGF2: growth factor (Peprotech): the “Activity (plating efficiency compared with control after 4 days culture)” value with human colon crypts (First screening (WENR)) amounted to 0.
